In patent US10196381B2, “Benzimidazole-2-piperazine heterocyclic compound, pharmaceutical composition containing the same, preparation method and use thereof” (Shanghai Huilun Life Science & Technology Co., Ltd., priority 2013, dated 2019) one finds inhibition data, which are given here for 13 compounds.

The target in the assay is PARP-1 enzyme (Homo sapiens (Human), UniProt P09874). Kind of assay: PARP enzyme activity assay (HT Universal Chemiluminescent PARP Assay Kit, histone-coated wells). The class given is biochemical. Conditions: for inhibition at 0.03 µM: read-out: Inhibition (%) at 30 nM; for inhibition at 0.1 µM: read-out: Inhibition (%) at 100 nM. How it is done:
PARP is an enzyme responsible for post-translational modification, which may be activated by means of DNA damage. The process catalyzed by PARP in vivo is mainly NAD-dependent poly(ADP-ribosyl)ation, in which the substrates are mainly some nuclear proteins including PARP, one example of which is histone. In the present invention, the PARP activity is assayed by determining the poly(ADP-ribosyl)ation degree of histone coated in a 96-well plate in the presence of NAD, and the PARP activity under the action of a PARP inhibitor is correspondingly assayed, thereby evaluating the degree of inhibition of the compounds on PARP activity. Poly(ADP-ribosyl)ation of nuclear proteins is a post-translational modification occurred in response to DNA damage. PARP is the abbreviation of poly(ADP-ribose)polymerase, which catalyzes the attachment of poly(ADP-ribose) to an adjacent nuclear protein in the presence of NAD, thus eliciting a mechanism of DNA repair through base excision repair pathway. The level of biotin-labeled ADP-ribose binding to histone can be detected by using the HT Universal Chemiluminescent PARP Assay Kit commercially available from Trevigen Corp. […] HT Universal Chemiluminescent PARP Assay Kit with Histone-coated Strip Wells, commercially available from Trevigen (US), Catalog #: 4676-096-K. […] 4. The PARP enzyme was carefully diluted with the 1×PARP buffer just before use, the diluted enzyme solution should be used as quickly as possible and the remaining solution should be discarded. […] 2. […] 1. […] 2. […] 4. […] After washing, equal volume of the PeroxyGlow A and B solutions were uniformly mixed, 100 μl of the solution was added to each well, and the chemiluminescent signals were recorded on a plate reader immediately. The readout of each well is converted into the percent inhibition. […] Note: the readout of the positive control well is designated as 100% enzyme activity; the readout of the negative control well is designated as 0% enzyme activity; and the activity X refers to the readout from respective concentration of each sample.

Chain of PARP-1 enzyme (P09874 whole entry): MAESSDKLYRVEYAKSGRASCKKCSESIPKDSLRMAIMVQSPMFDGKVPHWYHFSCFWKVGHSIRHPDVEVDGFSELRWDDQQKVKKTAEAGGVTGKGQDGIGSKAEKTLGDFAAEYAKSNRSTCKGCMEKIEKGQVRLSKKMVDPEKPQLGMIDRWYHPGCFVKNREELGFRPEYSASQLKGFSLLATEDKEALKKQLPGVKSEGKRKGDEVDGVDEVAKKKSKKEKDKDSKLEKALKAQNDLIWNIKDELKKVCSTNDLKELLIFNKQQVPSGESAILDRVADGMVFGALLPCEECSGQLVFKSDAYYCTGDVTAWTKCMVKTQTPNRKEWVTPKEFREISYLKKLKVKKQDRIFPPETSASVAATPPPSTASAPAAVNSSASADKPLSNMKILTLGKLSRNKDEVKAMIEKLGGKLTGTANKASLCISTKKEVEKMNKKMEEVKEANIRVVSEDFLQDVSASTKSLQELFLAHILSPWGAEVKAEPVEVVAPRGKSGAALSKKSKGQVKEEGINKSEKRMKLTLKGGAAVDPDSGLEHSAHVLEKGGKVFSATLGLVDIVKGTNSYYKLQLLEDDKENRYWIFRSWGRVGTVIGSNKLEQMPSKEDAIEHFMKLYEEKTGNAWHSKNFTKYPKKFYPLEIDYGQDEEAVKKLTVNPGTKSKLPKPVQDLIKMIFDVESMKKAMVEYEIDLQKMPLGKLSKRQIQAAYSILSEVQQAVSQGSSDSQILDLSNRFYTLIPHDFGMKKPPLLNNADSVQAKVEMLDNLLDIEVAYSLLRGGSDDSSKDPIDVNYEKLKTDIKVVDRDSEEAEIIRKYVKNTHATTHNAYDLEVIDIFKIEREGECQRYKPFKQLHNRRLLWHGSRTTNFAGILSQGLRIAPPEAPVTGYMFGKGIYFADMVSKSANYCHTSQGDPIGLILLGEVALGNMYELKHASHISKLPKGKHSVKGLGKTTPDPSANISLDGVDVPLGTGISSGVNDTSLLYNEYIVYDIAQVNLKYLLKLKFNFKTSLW

With `N#Cc1cnc(N2CCN(c3nc4c(C(N)=O)cc(F)cc4[nH]3)CC2)cn1` [Compound (37), 2-(4-(5-cyanopyrazin-2-yl)piperazin-1-yl)-6-fluoro-1H-benzimidazole-4-carboxamide], the inhibition – broadly, how much of the control response was suppressed – at 0.03 µM stood at 87% and the inhibition at 0.1 µM came out at 98%.

Take `NC(=O)c1cc(F)cc2[nH]c(N3CCN(c4ncc(F)cn4)CC3)nc12` [Compound (17), 6-fluoro-2-(4-(5-fluoropyrimidin-2-yl)piperazin-1-yl)-1H-benzimidazole-4-carboxamide]: the inhibition at 0.03 µM was 56% and the inhibition at 0.1 µM was 78%.

Consider `CN(C)C(=O)c1ccc(N2CCN(c3nc4c(C(N)=O)cccc4[nH]3)CC2)nc1` [Compound (15), 2-(4-(5-dimethylcarbamoylpyridin-2-yl)piperazin-1-yl)-1H-benzimidazole-4-carboxamide], for which the inhibition at 0.03 µM was determined as 44% and the inhibition at 0.1 µM was 70%.

In the case of `NC(=O)c1cccc2[nH]c(N3CCN(c4cc(C(F)(F)F)ncn4)CC3)nc12` [Compound (10), 2-(4-(6-trifluoromethylpyrimidin-4-yl)piperazin-1-yl)-1H-benzimidazole-4-carboxamide], the inhibition at 0.03 µM was found to be 38% and the inhibition at 0.1 µM came to 64%.

As for `NC(=O)c1cc(F)cc2[nH]c(N3CCN(c4cnc(C(F)(F)F)cn4)CC3)nc12` [Compound (35), 6-fluoro-2-(4-(5-trifluoromethylpyrazin-2-yl)piperazin-1-yl)-1H-benzimidazole-4-carboxamide], the inhibition at 0.03 µM came out at 76% and the inhibition at 0.1 µM was found to be 91%.

`NC(=O)c1cc(F)cc2[nH]c(N3CCN(c4ccc(C(F)(F)F)nn4)CC3)nc12` [Compound (31), 6-fluoro-2-(4-(6-trifluoromethylpyridazin-3-yl)piperazin-1-yl)-1H-benzimidazole-4-carboxamide]: the inhibition at 0.03 µM worked out at 80% and the inhibition at 0.1 µM was 95%.

With `CNC(=O)c1cnc(N2CCN(c3nc4c(C(N)=O)cc(F)cc4[nH]3)CC2)cn1` [Compound (25), 6-fluoro-2-(4-(5-methylcarbamoylpyrazin-2-yl)piperazin-1-yl)-1H-benzimidazole-4-carboxamide], the inhibition at 0.03 µM was found to be 79% and the inhibition at 0.1 µM was determined as 92%.

For `NC(=O)c1cc(F)cc2[nH]c(N3CCN(c4cnc(C(=O)N5CCOCC5)cn4)CC3)nc12` [Compound (30), 6-fluoro-2-(4-(5-(morpholin-4-acyl)pyrazin-2-yl)piperazin-1-yl)-1H-benzimidazole-4-carboxamide], the inhibition at 0.03 µM turned out to be 78% and the inhibition at 0.1 µM was found to be 92%.

On to `CN(C)C(=O)c1ncc(N2CCN(c3nc4c(C(N)=O)cc(F)cc4[nH]3)CC2)cn1` [Compound (41), 2-(4-(2-dimethylcarbamoylpyrimidin-5-yl)piperazin-1-yl)-6-fluoro-1H-benzimidazole-4-carboxamide], for which the inhibition at 0.03 µM came out at 75% and the inhibition at 0.1 µM came to 92%.

For `NC(=O)c1cc(F)cc2[nH]c(N3CCN(c4cnc(C(F)(F)F)nc4)CC3)nc12` [Compound (33), 6-fluoro-2-(4-(2-trifluoromethylpyrimidin-5-yl)piperazin-1-yl)-1H-benzimidazole-4-carboxamide], the inhibition at 0.03 µM was 88% and the inhibition at 0.1 µM came to 98%.

In the case of `CNC(=O)c1ccc(N2CCN(c3nc4c(C(N)=O)cccc4[nH]3)CC2)nc1` [Compound (11), 2-(4-(5-methylcarbamoylpyridin-2-yl)piperazin-1-yl)-1H-benzimidazole-4-carboxamide], the inhibition at 0.03 µM was determined as 59% and the inhibition at 0.1 µM was determined as 78%.

As for `CCNC(=O)c1cnc(N2CCN(c3nc4c(C(N)=O)cc(F)cc4[nH]3)CC2)cn1` [Compound (26), 2-(4-(5-ethylcarbamoylpyrazin-2-yl)piperazin-1-yl)-6-fluoro-1H-benzimidazole-4-carboxamide], the inhibition at 0.03 µM came to 80% and the inhibition at 0.1 µM turned out to be 94%.

Consider `CNC(=O)c1ccc(N2CCN(c3nc4c(C(N)=O)cc(F)cc4[nH]3)CC2)nc1` [Compound (24), 6-fluoro-2-(4-(5-methylcarbamoylpyridin-2-yl)piperazin-1-yl)-1H-benzimidazole-4-carboxamide], for which the inhibition at 0.03 µM is 45% and the inhibition at 0.1 µM amounted to 65%.
